The source of these data is patent publication US10780090B2, “Heteroaryl compounds useful as inhibitors of SUMO activating enzyme” (Millennium Pharmaceuticals, Inc., priority 2014, dated 2020).

The structures appear in SMILES notation. Bounds are passed on as bounds.

This experiment has as its target recombinant human SAE enzyme (Homo sapiens (Human), UniProt Q9UBT2). The experiment is described as follows: SAE HTRF enzyme assay. The conditions noted are these: for Percent Inhibition: Concentration 0.111 μM; for IC50: class symbols A/B/C. The experiment is classed as biochemical. In a few lines:
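Human SAE (0.11 nM) with 0.5 μM ATP, 0.125 μM Sumo-Flag and 0.01 μM Ubc9-GST in HEPES pH 7.5, 5 mM MgCl2, 250 μM GSH; 105 min at 24 °C. Stopped with EDTA; HTRF read after 2 h with Eu-anti-Flag and APC-anti-GST. Percent inhibition or IC50 reported.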
(In TR-FRET formats the signal depends on donor and acceptor labels being close together.)

Chain of recombinant human SAE enzyme (Q9UBT2 whole entry): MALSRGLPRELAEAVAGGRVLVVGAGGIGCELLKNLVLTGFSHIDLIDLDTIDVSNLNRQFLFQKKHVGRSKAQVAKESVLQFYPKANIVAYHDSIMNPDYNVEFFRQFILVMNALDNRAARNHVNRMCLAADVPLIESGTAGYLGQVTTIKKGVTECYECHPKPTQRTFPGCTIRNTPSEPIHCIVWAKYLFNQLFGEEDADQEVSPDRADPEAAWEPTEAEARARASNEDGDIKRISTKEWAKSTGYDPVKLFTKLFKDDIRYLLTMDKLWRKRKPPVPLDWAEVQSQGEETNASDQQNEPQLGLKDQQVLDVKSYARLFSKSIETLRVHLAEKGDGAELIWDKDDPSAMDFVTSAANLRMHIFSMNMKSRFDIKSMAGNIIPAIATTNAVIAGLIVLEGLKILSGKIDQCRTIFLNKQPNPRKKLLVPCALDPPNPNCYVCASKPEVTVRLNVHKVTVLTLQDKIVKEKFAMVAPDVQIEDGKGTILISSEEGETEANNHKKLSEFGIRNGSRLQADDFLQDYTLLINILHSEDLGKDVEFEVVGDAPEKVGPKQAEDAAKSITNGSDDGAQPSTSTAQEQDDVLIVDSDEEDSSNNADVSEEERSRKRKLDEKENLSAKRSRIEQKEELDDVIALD
Chain of recombinant human SAE enzyme (Q9UBE0 whole entry partner): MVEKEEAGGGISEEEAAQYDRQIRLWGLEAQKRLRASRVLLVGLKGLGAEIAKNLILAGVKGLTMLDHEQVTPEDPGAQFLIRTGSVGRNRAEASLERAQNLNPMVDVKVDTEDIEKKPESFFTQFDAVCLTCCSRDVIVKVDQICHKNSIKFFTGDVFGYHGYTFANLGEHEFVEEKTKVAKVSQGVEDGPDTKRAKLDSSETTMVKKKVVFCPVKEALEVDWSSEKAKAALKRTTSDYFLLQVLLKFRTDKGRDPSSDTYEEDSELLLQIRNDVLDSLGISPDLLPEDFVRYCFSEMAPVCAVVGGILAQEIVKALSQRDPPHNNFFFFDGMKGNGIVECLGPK

With `N[C@H](c1cccc(Cl)c1)c1csc(C(=O)c2cncnc2N[C@@H]2C[C@H](COS(N)(=O)=O)[C@@H](O)C2)c1` (single isomer, unassigned) [I-36b, [(1R,2S,4R)-4-{[5-({4-[(R)-amino(3-chlorophenyl)methyl]-2-thienyl}carbonyl)pyrimidin-4-yl]amino}-2-hydroxycyclopentyl]methyl sulfamate or [(1R,2S,4R)-4-{[5-({4-[(S)-amino(3-chlorophenyl)methyl]-2-thienyl}carbonyl)pyrimidin-4-yl]amino}-2-hydroxycyclopentyl]methyl sulfamate], the “Percent Inhibition” value was 99 and the IC50 (in general, the concentration needed to halve the response being measured) was less than 10 nM.
The matching figures for `NS(=O)(=O)OC[C@H]1C[C@@H](Nc2ncncc2C(=O)c2cc([C@@]3(c4cccc(Cl)c4)CCCN3)cs2)C[C@@H]1O` (single isomer, unassigned) [I-38a, [(1R,2S,4R)-4-{[5-({4-[(2S)-2-(3-chlorophenyl)pyrrolidin-2-yl]-2-thienyl}carbonyl)pyrimidin-4-yl]amino}-2-hydroxycyclopentyl]methyl sulfamate or [(1R,2S,4R)-4-{[5-({4-[(2R)-2-(3-chlorophenyl)pyrrolidin-2-yl]-2-thienyl}carbonyl)pyrimidin-4-yl]amino}-2-hydroxycyclopentyl]methyl sulfamate]: 75 and 10 to 100 nM.
The matching figures for `NS(=O)(=O)OC[C@H]1C[C@@H](Nc2ncncc2C(=O)c2cc([C@@]3(c4cccc(Cl)c4)CCCN3)cs2)C[C@@H]1O` (single isomer, unassigned) [I-38b, [(1R,2S,4R)-4-{[5-({4-[(2S)-2-(3-chlorophenyl)pyrrolidin-2-yl]-2-thienyl}carbonyl)pyrimidin-4-yl]amino}-2-hydroxycyclopentyl]methyl sulfamate or [(1R,2S,4R)-4-{[5-({4-[(2R)-2-(3-chlorophenyl)pyrrolidin-2-yl]-2-thienyl}carbonyl)pyrimidin-4-yl]amino}-2-hydroxycyclopentyl]methyl sulfamate]: 98 and less than 10 nM.
The matching figures for `NS(=O)(=O)OC[C@H]1C[C@@H](Nc2ncncc2C(=O)c2cc(Cc3cccc(Cl)c3)c([C@@H]3CCCO3)s2)C[C@@H]1O` (single isomer, unassigned) [I-41a, [(1R,2S,4R)-4-{[5-({4-(3-chlorobenzyl)-5-[(2S)-tetrahydrofuran-2-yl]-2-thienyl}carbonyl)pyrimidin-4-yl]amino}-2-hydroxycyclopentyl]methyl sulfamate or [(1R,2S,4R)-4-{[5-({4-(3-chlorobenzyl)-5-[(2R)-tetrahydrofuran-2-yl]-2-thienyl}carbonyl)pyrimidin-4-yl]amino}-2-hydroxycyclopentyl]methyl sulfamate]: 98 and less than 10 nM.
For `NS(=O)(=O)OC[C@H]1C[C@@H](Nc2ncncc2C(=O)c2cc(Cc3cccc(Cl)c3)c([C@@H]3CCCO3)s2)C[C@@H]1O` (single isomer, unassigned) [I-41b, [(1R,2S,4R)-4-{[5-({4-(3-chlorobenzyl)-5-[(2S)-tetrahydrofuran-2-yl]-2-thienyl}carbonyl)pyrimidin-4-yl]amino}-2-hydroxycyclopentyl]methyl sulfamate or [(1R,2S,4R)-4-{[5-({4-(3-chlorobenzyl)-5-[(2R)-tetrahydrofuran-2-yl]-2-thienyl}carbonyl)pyrimidin-4-yl]amino}-2-hydroxycyclopentyl]methyl sulfamate], the “Percent Inhibition” value stood at 98 and the IC50 is less than 10 nM.
For `NS(=O)(=O)OC[C@H]1C[C@@H](Nc2ncncc2C(=O)c2cc([C@H](O)c3cccc(Cl)c3)co2)C[C@@H]1O` (single isomer, unassigned) [I-42a, {(1R,2S,4R)-4-[(5-{4-[(R)-(3-chlorophenyl)(hydroxy)methyl]-2-furoyl}pyrimidin-4-yl)amino]-2-hydroxycyclopentyl}methyl sulfamate or {(1R,2S,4R)-4-[(5-{4-[(S)-(3-chlorophenyl)(hydroxy)methyl]-2-furoyl}pyrimidin-4-yl)amino]-2-hydroxycyclopentyl}methyl sulfamate] the same measures were 97 and less than 10 nM.
For `NS(=O)(=O)OC[C@H]1C[C@@H](Nc2ncncc2C(=O)c2cc([C@H](O)c3cccc(Cl)c3)co2)C[C@@H]1O` (single isomer, unassigned) [I-42b, {(1R,2S,4R)-4-[(5-{4-[(R)-(3-chlorophenyl)(hydroxy)methyl]-2-furoyl}pyrimidin-4-yl)amino]-2-hydroxycyclopentyl}methyl sulfamate or {(1R,2S,4R)-4-[(5-{4-[(S)-(3-chlorophenyl)(hydroxy)methyl]-2-furoyl}pyrimidin-4-yl)amino]-2-hydroxycyclopentyl}methyl sulfamate] the same measures were 99 and less than 10 nM.
With `CN[C@H](c1cccc(Cl)c1)c1csc(C(=O)c2cncnc2N[C@@H]2C[C@H](COS(N)(=O)=O)[C@@H](O)C2)c1` (single isomer, unassigned) [I-47a, [(1R,2S,4R)-4-{[5-({4-[(R)-(3-chlorophenyl)(methylamino)methyl]-2-thienyl}carbonyl)pyrimidin-4-yl]amino}-2-hydroxycyclopentyl]methyl sulfamate or [(1R,2S,4R)-4-{[5-({4-[(S)-(3-chlorophenyl)(methylamino)methyl]-2-thienyl}carbonyl)pyrimidin-4-yl]amino}-2-hydroxycyclopentyl]methyl sulfamate], the “Percent Inhibition” value came out at 99 and the IC50 is less than 10 nM.
For `CN[C@H](c1cccc(Cl)c1)c1csc(C(=O)c2cncnc2N[C@@H]2C[C@H](COS(N)(=O)=O)[C@@H](O)C2)c1` (single isomer, unassigned) [I-47b, [(1R,2S,4R)-4-{[5-({4-[(R)-(3-chlorophenyl)(methylamino)methyl]-2-thienyl}carbonyl)pyrimidin-4-yl]amino}-2-hydroxycyclopentyl]methyl sulfamate or [(1R,2S,4R)-4-{[5-({4-[(S)-(3-chlorophenyl)(methylamino)methyl]-2-thienyl}carbonyl)pyrimidin-4-yl]amino}-2-hydroxycyclopentyl]methyl sulfamate] the same measures were 99 and less than 10 nM.
For `C[C@](O)(c1ccccc1)c1coc(C(=O)c2cncnc2N[C@@H]2C[C@H](COS(N)(=O)=O)[C@@H](O)C2)c1` (single isomer, unassigned) [I-58a, {(1R,2S,4R)-2-hydroxy-4-[(5-{4-[(1S)-1-hydroxy-1-phenylethyl]-2-furoyl}pyrimidin-4-yl)amino]cyclopentyl}methyl sulfamate or {(1R,2S,4R)-2-hydroxy-4-[(5-{4-[(1R)-1-hydroxy-1-phenylethyl]-2-furoyl}pyrimidin-4-yl)amino]cyclopentyl}methyl sulfamate] the same measures were 87 and 10 to 100 nM.
For `C[C@](O)(c1ccccc1)c1coc(C(=O)c2cncnc2N[C@@H]2C[C@H](COS(N)(=O)=O)[C@@H](O)C2)c1` (single isomer, unassigned) [I-58b, {(1R,2S,4R)-2-hydroxy-4-[(5-{4-[(1S)-1-hydroxy-1-phenylethyl]-2-furoyl}pyrimidin-4-yl)amino]cyclopentyl}methyl sulfamate or {(1R,2S,4R)-2-hydroxy-4-[(5-{4-[(1R)-1-hydroxy-1-phenylethyl]-2-furoyl}pyrimidin-4-yl)amino]cyclopentyl}methyl sulfamate] the same measures were 100 and less than 10 nM.
With `CO[C@@H](c1cccc(Br)c1)c1csc(C(=O)c2cncnc2N[C@@H]2C[C@H](COS(N)(=O)=O)[C@@H](O)C2)c1` (single isomer, unassigned) [I-73a, [(1R,2S,4R)-4-{[({(4-[(S)-(3-Bromophenyl)(methoxy)methyl]-2-thienyl}carbonyl)pyrimidin-4-yl]amino}-2-hydroxycyclopentyl]methyl sulfamate or [(1R,2S,4R)-4-{[5-({4-[(R)-(3-Bromophenyl)(methoxy)methyl]-2-thienyl}carbonyl)pyrimidin-4-yl]amino}-2-hydroxycyclopentyl]methyl sulfamate], the “Percent Inhibition” value is reported as 98 and the IC50 is less than 10 nM.
The matching figures for `CO[C@@H](c1cccc(Br)c1)c1csc(C(=O)c2cncnc2N[C@@H]2C[C@H](COS(N)(=O)=O)[C@@H](O)C2)c1` (single isomer, unassigned) [I-73b, [(1R,2S,4R)-4-{[5-({4-[(S)-(3-Bromophenyl)(methoxy)methyl-2-thienyl}carbonyl)pyrimidin-4-yl]amino}-2-hydroxycyclopentyl]methyl sulfamate or [(1R,2S,4R)-4-{[5-(4-[(R)-(3-Bromophenyl)(methoxy)methyl]-2-thienyl)carbonyl)pyrimidin-4-yl]amino}-2-hydroxycyclopentyl]methyl sulfamate]: 98 and less than 10 nM.
For `CO[C@H](c1cccc(Cl)c1)c1cc(C(=O)c2cncnc2N[C@@H]2C[C@H](COS(N)(=O)=O)[C@@H](O)C2)sc1Cl` (single isomer, unassigned) [I-90a, [(1R,2S,4R)-4-{[5-({5-chloro-4-[(R)-(3-chlorophenyl)(methoxy)methyl]-2-thienyl}carbonyl)pyrimidin-4-yl]amino}-2-hydroxycyclopentyl]methyl sulfamate or [(1R,2S,4R)-4-{[5-({5-chloro-4-[(S)-(3-chlorophenyl)(methoxy)methyl]-2-thienyl}carbonyl)pyrimidin-4-yl]amino}-2-hydroxycyclopentyl]methyl sulfamate] the same measures were 98 and less than 10 nM.
